Where a SMILES comes first, the peptide text is derived from it.

The experiment has as its target guinea pig brain membranes. The experiment is described as follows: Binding test with guinea pig brain membranes. Particulars: tested on guinea pig brain membranes; read-out: IC50 = 100 μM. As to the method:
Binding Assay Alternative Protocol by Skatron
The experimental conditions are identical for all the binding assay protocols except for the fact that: i) the volume R in operation is 200 μl; ii) the test carried out in 96-well Falcon plates iii) the reaction is directly stopped by filtration on filterMat (ref. 11734) Skatron and the radioactivity associated with the filtrate is evaluated: either directly with a γ counter for the peptides labelled with […]: or with a […] in the presence of 5 ml of scintillating liquid.
Membrane Preparations of Guinea Pig Brains and Binding Assay
The guinea pigs are sacrificed by rupturing their cervical vertibrae, decapitated, and the brains are removed very rapidly and placed into a sucrose-Tris-HCl buffer (0.32 M sucrose 5 mM, Tris-HCl, 0.1 g/l bacitracin) at 4° C. (about 10 ml of buffer per brain). The brains are then homogenized using a Potter device and the homogenate is placed in incubation for 30 minutes at 37° C. under agitation, then centrifuged twice for 35 minutes at 100,000×g at 4° C. The protein content of the membrane preparations is evaluated according to the Bradford method (BioRad, according to the manufacturers protocol).
Bonding of Labelled Agonists to the Guinea Pig Brain Membrane Preparation The membranes are placed in a buffer (50 mM of Tris-HCl, 5 mM of MgCl2 and 0.1 g/l of bacitracin) at the desired protein concentration (iodized CCK bond, 0.1 mg of protein/ml; iodized gastrin bond: 0.5 mg of proteins/ml). They are then incubated in the presence of a labelled ligand in a total volume of 500 μl (about 10 pM for the iodized CCK8, 20 pM for the iodized gastrin13), 50-80 minutes at 25° C., and in the presence or absence of cold agonists. The reaction is stopped with 3 ml of additional BSA buffer (20 g/l) at 4° C., the tubes are centrifuged at 10,000×g, the supernatant is drawn off and the radioactivity associated with the precipitate is evaluated with a γ counter.
As usually defined, the IC50 is the midpoint of a concentration-inhibition curve. On to `CC(C)C[C@H](NC(=O)[C@H](CC(C)C)NC(=O)[C@@H](N)CO)C(=O)N[C@@H](CO)C(=O)N[C@@H](CCCCN)C(=O)N[C@H](C(=O)N[C@@H](CO)C(=O)N[C@@H](CCC(N)=O)C(N)=O)C(C)C` [Example 7, H-SLLSKVSQ-NH2] (H-SLLSKVSQ-NH2), for which the IC50 was 430 nM.

`CSCC[C@H](NC(=O)[C@H](CCC(N)=O)NC(=O)[C@H](CC(C)C)NC(=O)[C@H](CCCCN)NC(=O)[C@@H]1CCCN1C(=O)[C@H](CC(=O)O)NC(=O)[C@H](CCC(N)=O)NC(=O)[C@@H](NC(=O)[C@@H](N)C(C)C)[C@@H](C)O)C(N)=O` [Example 8, H-VTQDPKLQM-NH2] (H-VTQDPKLQM-NH2): the IC50 stood at 4200 nM.

On to `CC[C@H](C)[C@H](NC(=O)[C@H](C)NC(=O)[C@@H](NC(=O)[C@H](CCC(=O)O)NC(=O)[C@H](CCC(=O)O)NC(=O)[C@@H]1CCCN1C(=O)[C@H](Cc1ccccc1)NC(=O)[C@@H](N)CC(=O)O)C(C)C)C(=O)N[C@H](C(=O)N[C@@H](CCC(=O)O)C(=O)N[C@@H](CCC(=O)O)C(=O)N[C@@H](CC(C)C)C(N)=O)C(C)C` [Example 9, H-DFPEEVAIVEEL-NH2] (H-DFPEEVAIVEEL-NH2), for which the IC50 was 220 nM.

As for `CSCC[C@H](N)C(=O)N[C@@H](CC(=O)O)C(=O)N[C@H](C(=O)NCC(=O)NCC(=O)N[C@@H](CC(C)C)C(=O)N[C@@H](CO)C(=O)N[C@@H](CC(=O)O)C(=O)N1CCC[C@H]1C(=O)N[C@@H](Cc1ccc(O)cc1)C(=O)N[C@H](C(=O)N[C@@H](CCCCN)C(=O)N[C@H](C(=O)N[C@@H](Cc1c[nH]cn1)C(=O)N[C@@H](CC(C)C)C(=O)N[C@@H](CC(C)C)C(=O)N[C@@H](CCC(N)=O)C(=O)NCC(N)=O)C(C)C)C(C)C)C(C)C` [Example 10, H-MDVGGLSDPYVKVHLLQG-NH2] (H-MDVGGLSDPYVKVHLLQG-NH2), the IC50 stood at 30 nM.

On to `CC(C)C[C@H](NC(=O)[C@H](CO)NC(=O)[C@@H]1CCCN1C(=O)[C@@H](N)CC(=O)O)C(=O)N1CCC[C@H]1C(=O)N[C@H](C(=O)N[C@@H](C)C(=O)N[C@@H](CO)C(=O)N[C@@H](CO)C(=O)N[C@@H](CO)C(=O)N[C@@H](CO)C(=O)N[C@@H](CO)C(=O)N[C@@H](CO)C(=O)N[C@@H](CO)C(=O)N[C@@H](CCCCN)C(=O)N[C@@H](CCCNC(=N)N)C(N)=O)C(C)C` [Example 11, H-DPSLPVASSSSSSSKR-NH2] (H-DPSLPVASSSSSSSKR-NH2), for which the IC50 turned out to be 270 nM.

Consider `CC[C@H](C)[C@H](NC(=O)[C@@H]1CCCN1C(=O)[C@@H](NC(=O)[C@H](Cc1ccccc1)NC(=O)[C@H](CC(C)C)NC(=O)[C@@H](NC(=O)[C@H](CO)NC(=O)CNC(=O)[C@H](CC(C)C)NC(=O)[C@H](CC(C)C)NC(=O)[C@@H]1CCCN1)[C@@H](C)O)[C@@H](C)CC)C(N)=O` [Example 12, H-PLLGSTLFIPI-NH2] (H-PLLGSTLFIPI-NH2), for which the IC50 stood at 20 nM.

In the case of `CSCC[C@H](NC(=O)[C@H](CCC(N)=O)NC(=O)[C@H](Cc1ccccc1)NC(=O)CNC(=O)[C@H](CO)NC(=O)[C@@H](N)CC(=O)O)C(=O)N[C@@H](CC(N)=O)C(=O)N[C@@H](CCC(N)=O)C(=O)N[C@@H](CC(C)C)C(=O)N[C@@H](CCCNC(=N)N)C(N)=O` [Example 13, H-DSGFQMNQLR-NH2] (H-DSGFQMNQLR-NH2), the IC50 amounted to 90 nM.

For `CSCC[C@H](NC(=O)[C@@H](NC(=O)[C@H](CCC(=O)O)NC(=O)[C@H](CCC(=O)O)NC(=O)[C@H](CC(C)C)NC(=O)[C@H](CCC(N)=O)NC(=O)[C@@H](N)CC(C)C)[C@@H](C)O)C(=O)N1CCC[C@H]1C(=O)N[C@@H](CO)C(=O)N1CCC[C@H]1C(=O)N[C@@H](Cc1ccc(O)cc1)C(N)=O` [Example 14, H-LQLEETMPSPY-NH2] (H-LQLEETMPSPY-NH2), the IC50 stood at 860 nM.

In the case of `CC[C@H](C)[C@H](NC(=O)[C@H](CO)NC(=O)[C@@H](N)Cc1ccccc1)C(=O)N[C@@H](C)C(=O)N[C@H](C(=O)N[C@@H](CC(C)C)C(=O)N[C@@H](CCCNC(=N)N)C(=O)N[C@@H](CC(=O)O)C(=O)N[C@@H](Cc1ccccc1)C(=O)NCC(=O)N[C@H](C(N)=O)C(C)C)[C@@H](C)O` [Example 15, H-FSIATLRDFGV-NH2] (H-FSIATLRDFGV-NH2), the IC50 stood at 360 nM.

With `CSCC[C@H](NC(=O)CNC(=O)[C@H](Cc1ccccc1)NC(=O)[C@H](CC(=O)O)NC(=O)[C@H](CCCNC(=N)N)NC(=O)[C@H](CCSC)NC(=O)[C@@H](NC(=O)[C@@H](NC(=O)[C@@H](NC(=O)[C@H](CO)NC(=O)[C@@H](N)Cc1ccccc1)C(C)C)[C@@H](C)O)[C@@H](C)O)C(N)=O` [Example 16, H-FSVTTMRDFGM-NH2] (H-FSVTTMRDFGM-NH2), the IC50 is 80 nM.

On to `CC(C)C[C@H](NC(=O)[C@H](CCC(=O)O)NC(=O)[C@H](CC(=O)O)NC(=O)[C@H](CC(C)C)NC(=O)[C@@H](NC(=O)[C@H](Cc1ccccc1)NC(=O)[C@H](C)NC(=O)[C@H](Cc1c[nH]cn1)NC(=O)[C@H](CO)NC(=O)[C@H](CO)NC(=O)[C@@H](N)CC(=O)O)[C@@H](C)O)C(=O)N[C@@H](CCCNC(=N)N)C(N)=O` [Example 17, H-DSSHAFTLDELR-NH2] (H-DSSHAFTLDELR-NH2), for which the IC50 stood at 680 nM.

Regarding `CSCC[C@H](NC(=O)[C@@H](N)CC(=O)O)C(=O)N[C@H](C(=O)N[C@H](C(=O)N[C@@H](Cc1ccccc1)C(=O)N[C@@H](CC(C)C)C(=O)N[C@@H](CC(=O)O)C(=O)NCC(=O)NCC(=O)N[C@@H](CCC(N)=O)C(=O)N[C@@H](CC(C)C)C(=O)NCC(=O)N[C@H](C(=O)N[C@@H](CC(C)C)C(=O)N[C@H](C(N)=O)C(C)C)[C@@H](C)O)C(C)C)C(C)C` [Example 18, H-DMVVFLDGGQLGTLV-NH2] (H-DMVVFLDGGQLGTLV-NH2), the IC50 is 800 nM.

As to `CC[C@H](C)[C@H](NC(=O)[C@H](Cc1c[nH]cn1)NC(=O)[C@@H](N)CC(C)C)C(=O)N[C@@H](CO)C(=O)N[C@@H](Cc1c[nH]cn1)C(=O)N[C@@H](CC(=O)O)C(=O)N[C@@H](CCSC)C(=O)N[C@H](C(=O)NCC(=O)N1CCC[C@H]1C(=O)N[C@@H](CC(=O)O)C(N)=O)[C@@H](C)O` [Example 19, H-LHISHDMTGPD-NH2] (H-LHISHDMTGPD-NH2), the IC50 came out at 700 nM.

For the compound `CC[C@H](C)[C@H](NC(=O)CNC(=O)[C@H](CCC(=O)O)NC(=O)[C@H](CC(C)C)NC(=O)[C@@H](N)CO)C(=O)N[C@@H](Cc1ccccc1)C(=O)N[C@@H](CC(=O)O)C(=O)N[C@@H](CC(=O)O)C(=O)N[C@H](C(=O)N[C@H](C(=O)N1CCC[C@H]1C(=O)N[C@@H](CC(=O)O)C(N)=O)C(C)C)[C@@H](C)CC` [Example 20, H-SLEGIFDDIVPD-NH2] (H-SLEGIFDDIVPD-NH2), the IC50 amounted to 350 nM.

On to `CSCC[C@H](NC(=O)[C@H](Cc1ccccc1)NC(=O)[C@H](Cc1ccc(O)cc1)NC(=O)[C@H](CC(N)=O)NC(=O)[C@@H](N)CO)C(=O)N1CCC[C@H]1C(=O)N[C@@H](Cc1ccccc1)C(=O)N[C@@H](CO)C(=O)N[C@@H](C)C(N)=O` [Example 21, H-SNYFMPFSA-NH2] (H-SNYFMPFSA-NH2), for which the IC50 amounted to 160 nM.

Turning to `CC[C@H](C)[C@H](NC(=O)[C@H](CO)NC(=O)[C@H](Cc1ccccc1)NC(=O)[C@@H]1CCCN1C(=O)[C@@H](NC(=O)[C@H](Cc1ccccc1)NC(=O)[C@H](C)NC(=O)[C@H](CC(=O)O)NC(=O)[C@@H](N)CO)C(C)C)C(N)=O` [Example 22, H-SDAFVPFSI-NH2] (H-SDAFVPFSI-NH2), the IC50 came to 2800 nM.

In the case of `CC(C)C[C@H](NC(=O)[C@H](C)NC(=O)CNC(=O)[C@@H](NC(=O)[C@@H](N)CCCNC(=N)N)[C@@H](C)O)C(=O)N[C@H](C(=O)N[C@@H](CC(C)C)C(=O)N[C@@H](CO)C(=O)N[C@@H](CCCNC(=N)N)C(=O)NCC(N)=O)C(C)C` [Example 23, H-RTGALVLSRG-NH2] (H-RTGALVLSRG-NH2), the IC50 was determined as 1300 nM.

On to `C[C@H](NC(=O)[C@H](CCC(=O)O)NC(=O)[C@@H]1CCCN1C(=O)[C@H](CCC(N)=O)NC(=O)[C@H](Cc1ccccc1)NC(=O)[C@H](CO)NC(=O)[C@H](CO)NC(=O)[C@@H](N)CCC(=O)O)C(=O)NCC(=O)N[C@@H](Cc1ccccc1)C(N)=O` [Example 24, H-ESSFQPEAGF-NH2] (H-ESSFQPEAGF-NH2), for which the half-inhibitory concentration (IC50) came out at 230 nM.

In the case of `CC[C@H](C)[C@H](NC(=O)[C@@H]1CCCN1C(=O)CNC(=O)CN)C(=O)N[C@@H](CO)C(=O)N[C@@H](Cc1ccccc1)C(=O)N[C@@H](CO)C(=O)N[C@@H](CO)C(=O)N[C@@H](CO)C(=O)N[C@@H](CCCNC(=N)N)C(=O)N[C@@H](CO)C(N)=O` [Example 25, H-GGPISFSSSRS-NH2] (H-GGPISFSSSRS-NH2), the IC50 turned out to be 310 nM.

As to `CC(C)C[C@H](NC(=O)[C@H](CO)NC(=O)[C@@H](NC(=O)[C@H](CC(=O)O)NC(=O)[C@@H](N)CO)[C@@H](C)O)C(=O)N[C@H](C(=O)N[C@@H](Cc1c[nH]c2ccccc12)C(=O)N[C@@H](CC(N)=O)C(=O)N[C@@H](CO)C(=O)N[C@H](C(=O)N[C@@H](CCCCN)C(N)=O)C(C)C)[C@@H](C)O` [Example 27, H-SDTSLTWNSVK-NH2] (H-SDTSLTWNSVK-NH2), the IC50 stood at 680 nM.

Values taken from patent US20020059032A1, “Rational selection of putative peptides from identified nucleotide or peptide sequences” (priority 1999, published 2002).
